Test results reported in article PMC4857601 (Nature chemistry, 2016).
Positions count from the first letter of the chain named.

Assays:
[1] = molecular target: T1, DFsc (2A3H-DFsc), [DFsc-Zn(II)2] (synthetic construct, UniProt Z9QLD2D1S0, H107A); experiment: UV/vis; assay type: binding; settings: Zn(II)-bound form; bound as semiquinone derived from 4-t-butylcatechol
T1 sequence (Z9QLD2D1S0 1-115 H107A): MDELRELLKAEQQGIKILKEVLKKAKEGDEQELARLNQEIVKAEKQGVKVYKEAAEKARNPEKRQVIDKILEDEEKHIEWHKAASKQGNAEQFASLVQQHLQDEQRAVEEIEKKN

[2] = molecular target: T2, DFsc (2A3H-DFsc), [DFsc-Zn(II)2] (synthetic construct, UniProt Z9QLD2D1S0, H107N); experiment: UV/vis; assay type: binding; settings: Zn(II)-bound form; bound as semiquinone derived from 4-t-butylcatechol
T2 sequence (Z9QLD2D1S0 1-115 H107N): T1 sequence (Z9QLD2D1S0 1-115 H107A) with A107N

What does the source list for `CC(C)(C)c1ccc(O)c(O)c1`?
UV/vis [1]: The variants also form a 4-t-butylcatechol-derived SQ• complex; UV/vis [2]: The variants also form a 4-t-butylcatechol-derived SQ• complex
